Measurements as given in patent US20120015957A1, “PIPERAZINYL DERIVATIVES USEFUL AS MODULATORS OF THE NEUROPEPTIDE Y2 RECEPTOR” (priority 2007, published 2012).

The compounds below were run against T1, NPY Y2 receptor (Homo sapiens, UniProt P49146) (assay: Neuropeptide Y2 radioligand binding assay ([125I]PYY, KAN-Ts cell membranes)). Details: membranes of KAN-Ts cells endogenously expressing Y2 receptors; [125I]PYY 80 pM; 1 h at rt; read-out: IC50 (μM), NPY Y2 binding.
T1 construct: endogenous in cells; host or cells: KAN-Ts cells (membrane preparation)
T1 sequence (P49146 1-381): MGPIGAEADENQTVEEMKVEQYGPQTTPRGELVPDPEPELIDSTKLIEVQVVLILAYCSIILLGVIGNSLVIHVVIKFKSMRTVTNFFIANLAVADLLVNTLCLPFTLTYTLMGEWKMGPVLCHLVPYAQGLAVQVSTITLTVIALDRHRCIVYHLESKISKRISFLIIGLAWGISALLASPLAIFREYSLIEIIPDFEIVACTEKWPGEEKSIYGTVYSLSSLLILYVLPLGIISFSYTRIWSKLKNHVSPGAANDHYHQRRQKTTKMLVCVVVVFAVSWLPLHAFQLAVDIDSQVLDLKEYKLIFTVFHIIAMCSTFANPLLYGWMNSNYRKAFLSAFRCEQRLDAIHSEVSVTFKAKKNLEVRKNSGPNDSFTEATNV
Method: KAN-Ts endogenously expressing Y2 receptors were used for the radioligand binding assay. Cells were grown to confluence on 150 cm^2 tissue culture plates, washed with phosphate-buffered saline (PBS), and scraped into 50 mL tubes. After centrifugation, the supernatant was aspirated, and the pellets frozen and stored at −80° C. Thawed pellets were homogenized with a polytron tissue grinder for 15 sec in 20 mM Tris-HCl, 5 mM EDTA. The homogenate was centrifuged at 800×g for 5 min and the collected supernatant was recentrifuged at 25000×g for 25 min. The resulting pellet was resuspended in binding buffer (20 mM HEPES, 120 mM NaCl, 0.22 mM KH2PO4, 1.3 mM CaCl2, 0.8 mM MgSO4). Membranes were incubated with [^125I]PYY (80 pM) in the presence or absence of test compound for 1 h at rt. The reaction was stopped by filtration through GF/C filter plates pre-soaked in 0.3% polyethylenimine and subsequently washed with Tris 50 mM, 5 mM EDTA buffer. Plates were dried for 1 h in a 55° C. oven, scintillation fluid was added and the radioactivity was counted in a Packard TopCount. Specific binding to the NPY receptor subtypes was determined by radioactivity that was bound in the presence of […] NPY. Each binding experiment was repeated three to eight times, each in duplicate. IC50 values (i.e. concentration of unlabelled peptide or antagonist required to compete for 50% of specific binding to the radioligand) were determined using the GraphPad Prism software (GraphPad Software Inc., San Diego Calif.) with a fit to a sigmoidal dose response curve. Apparent K values were as K=IC50/(1+C/KD), where C is concentration of the radioligand.

`CC[C@H](C)c1nc(-c2ccc(N3CCN(C(C(=O)N(CC)CC)c4ccccc4)CC3)c(F)c2)no1` (stereo in doubt) [Compound 97, 2-{4-[4-(5-sec-Butyl-[1,2,4]oxadiazol-3-yl)-2-fluoro-phenyl]-piperazin-1-yl}-N,N-diethyl-2-phenyl-acetamide] and `CCC(CC)c1nc(-c2ccc(N3CCN(C(C(=O)N(CC)CC)c4ccccc4)CC3)c(F)c2)no1` (stereo not drawn) [Compound 70, N,N-Diethyl-2-(4-{4-[5-(1-ethyl-propyl)-[1,2,4]oxadiazol-3-yl]-2-fluoro-phenyl}-piperazin-1-yl)-2-phenyl-acetamide] are within 1.5-fold of each other in IC50: 0.37 µM for the first, 0.48 µM for the second.

Compared with `CCc1nc(-c2ccc(N3CCN(C(C(=O)N(CC)CC)c4ccccc4)CC3)c(F)c2)no1` (stereo not drawn) [Compound 3, N,N-Diethyl-2-{4-[4-(5-ethyl-[1,2,4]oxadiazol-3-yl)-2-fluoro-phenyl]-piperazin-1-yl}-2-phenyl-acetamide], `CCCc1nc(-c2ccc(N3CCN(C(C(=O)N(CC)CC)c4ccccc4)CC3)c(F)c2)no1` (stereo not drawn) [Compound 68, N,N-Diethyl-2-{4-[2-fluoro-4-(5-propyl-[1,2,4]oxadiazol-3-yl)-phenyl]-piperazin-1-yl}-2-phenyl-acetamide] is 2.2-fold higher in IC50: 0.24 µM for the first, 0.52 µM for the second.

Compared with `CCc1noc(-c2ccc(N3CCN(C(C(=O)N(CC)CC)c4ccccc4)CC3)c(F)c2)n1` (stereo not drawn) [Compound 71, N,N-Diethyl-2-{4-[4-(3-ethyl-[1,2,4]oxadiazol-5-yl)-2-fluoro-phenyl]-piperazin-1-yl}-2-phenyl-acetamide], `CCN(CC)C(=O)C(c1ccccc1)N1CCN(c2ccc(-c3nc(C(C)C)no3)cc2F)CC1` (stereo not drawn) [Compound 80, N,N-Diethyl-2-{4-[2-fluoro-4-(3-isopropyl-[1,2,4]oxadiazol-5-yl)-phenyl]-piperazin-1-yl}-2-phenyl-acetamide] is 2.4-fold lower in IC50: 0.097 µM for the first, 0.041 µM for the second.

Going from `CCN(CC)C(=O)C(c1ccccc1)N1CCN(c2ccc(-c3noc(C(C)(C)C)n3)cc2F)CC1` (stereo not drawn) [Compound 75, 2-{4-[4-(5-tert-Butyl-[1,2,4]oxadiazol-3-yl)-2-fluoro-phenyl]-piperazin-1-yl}-N,N-diethyl-2-phenyl-acetamide] to `CCN(CC)C(=O)C(c1ccccc1)N1CCN(c2ccc(-c3noc(CC(C)(C)C)n3)cc2F)CC1` (stereo not drawn) [Compound 79, 2-(4-{4-[5-(2,2-Dimethyl-propyl)-[1,2,4]oxadiazol-3-yl]-2-fluoro-phenyl}-piperazin-1-yl)-N,N-diethyl-2-phenyl-acetamide], the IC50 rises from 0.6 µM to 6.3 µM (10-fold).

First: CCN(CC)C(=O)C(c1ccccc1)N1CCN(c2ccc(-c3noc(C4CC4)n3)cc2F)CC1 (stereo not drawn) [Compound 88, 2-{4-[4-(5-Cyclopropyl-[1,2,4]oxadiazol-3-yl)-2-fluoro-phenyl}-piperazin-1-yl]-N,N-diethyl-2-phenyl-acetamide]
Second: CCN(CC)C(=O)C(c1ccccc1)N1CCN(c2ccc(-c3noc(C4CCC4)n3)cc2F)CC1 (stereo not drawn) [Compound 89, 2-{4-[4-(5-Cyclobutyl-[1,2,4]oxadiazol-3-yl)-2-fluoro-phenyl]-piperazin-1-yl}-N,N-diethyl-2-phenyl-acetamide]
The IC50 of the first is 3.1-fold lower: 0.27 µM for the first, 0.85 µM for the second. The first is the more potent here.

`CCN(CC)C(=O)C(c1ccccc1)N1CCN(c2ccc(-c3noc(CF)n3)cc2F)CC1` (stereo not drawn) [Compound 105, N,N-Diethyl-2-{4-[2-fluoro-4-(5-fluoromethyl-[1,2,4]oxadiazol-3-yl)-phenyl]-piperazin-1-yl}-2-phenyl-acetamide] and `CCN(CC)C(=O)C(c1ccccc1)N1CCN(c2ccc(-c3noc(C(F)(F)F)n3)cc2F)CC1` (stereo not drawn) [Compound 118, N,N-Diethyl-2-{4-[2-fluoro-4-(5-trifluoromethyl-[1,2,4]oxadiazol-3-yl)-phenyl]-piperazin-1-yl}-2-phenyl-acetamide] are within 1.5-fold of each other in IC50: 0.16 µM for the first, 0.18 µM for the second.

Going from `CCN(CC)C(=O)C(c1ccccc1)N1CCN(c2ccc(C3=N[C@H](C(=O)OC)CO3)cc2F)CC1` (stereo partly drawn) [Compound 124, 2-{4-[4-(Diethylcarbamoyl-phenyl-methyl)-piperazin-1-yl]-3-fluorophenyl}-4,5-dihydro-oxazole-4-carboxylic acid methyl ester] to `CCN(CC)C(=O)C(c1ccccc1)N1CCN(c2ccc(-c3nc(C(=O)OC)co3)cc2F)CC1` (stereo not drawn) [Compound 129, 2-{4-[4-(Diethylcarbamoyl-phenyl-methyl)-piperazin-1-yl]-3-fluorophenyl}-oxazole-4-carboxylic acid methyl ester], the IC50 rises from 1 µM to 1.9 µM (1.9-fold). The first is the more potent here.

Compared with `CCOC(=O)c1nc(-c2ccc(N3CCN(C(C(=O)N(CC)CC)c4ccccc4)CC3)c(F)c2)no1` (stereo not drawn) [Compound 130, 3-{4-[4-(Diethylcarbamoyl-phenyl-methyl)-piperazin-1-yl]-3-fluoro-phenyl}-[1,2,4]oxadiazole-5-carboxylic acid ethyl ester], `CCN(CC)C(=O)C(c1ccccc1)N1CCN(c2ccc(-c3noc(C(N)=O)n3)cc2F)CC1` (stereo not drawn) [Compound 144, 3-{4-[4-(Diethylcarbamoyl-phenyl-methyl)-piperazin-1-yl]-3-fluorophenyl}-[1,2,4]oxadiazole-5-carboxylic acid amide] is lower in IC50: over 10 µM for the first, 1.1 µM for the second.

Compared with `CCc1cnc(-c2ccc(N3CCN(C(C(=O)N(CC)CC)c4ccccc4)CC3)c(F)c2)o1` (stereo not drawn) [Compound 133, N,N-Diethyl-2-{4-[4-(5-ethyl-oxazol-2-yl)-2-fluoro-phenyl]-piperazin-1-yl}-2-phenyl-acetamide], `CCc1nnc(-c2ccc(N3CCN(C(C(=O)N(CC)CC)c4ccccc4)CC3)c(F)c2)o1` (stereo not drawn) [Compound 152, N,N-Diethyl-2-{4-[4-(5-ethyl-[1,3,4]oxadiazol-2-yl)-2-fluoro-phenyl]-piperazin-1-yl}-2-phenyl-acetamide] is 1.5-fold lower in IC50: 0.46 µM for the first, 0.3 µM for the second. The second is the more potent here.

First: CCN(CC)C(=O)C(c1ccccc1)N1CCN(c2ccc(-c3noc(C#N)n3)cc2F)CC1 (stereo not drawn) [Compound 147, 2-{4-[4-(5-Cyano-[1,2,4]oxadiazol-3-yl)-2-fluoro-phenyl]-piperazin-1-yl}-N,N-diethyl-2-phenyl-acetamide]
Second: CCN(CC)C(=O)C(c1ccccc1)N1CCN(c2ccc(-c3noc(C(=O)O)n3)cc2F)CC1 (stereo not drawn) [Compound 151, 3-{4-[4-(Diethylcarbamoyl-phenyl-methyl)-piperazin-1-yl]-3-fluorophenyl}-[1,2,4]oxadiazole-5-carboxylic acid]
The IC50 of the first is lower: 4.1 µM for the first, over 10 µM for the second.

Going from `CCN(CC)C(=O)C(c1ccccc1)N1CCN(c2ccc(-c3noc(/C(N)=N/O)n3)cc2F)CC1` (stereo not drawn) [Compound 149, N,N-Diethyl-2-(4-{2-fluoro-4-[5-(N-hydroxycarbamimidoyl)-[1,2,4]oxadiazol-3-yl]-phenyl}-piperazin-1-yl)-2-phenyl-acetamide] to `CCN(CC)C(=O)C(c1ccccc1)N1CCN(c2ccc(-c3ncon3)cc2F)CC1` (stereo not drawn) [Compound 158, N,N-Diethyl-2-[4-(2-fluoro-4-[1,2,4]oxadiazol-3-yl-phenyl)-piperazin-1-yl]-2-phenyl-acetamide], the IC50 rises from 0.99 µM to 1.5 µM (1.5-fold).

Compared with `CCN(CC)C(=O)C(c1ccccc1)N1CCN(c2ccc(-c3nnc(C)o3)cc2F)CC1` (stereo not drawn) [Compound 150, N,N-Diethyl-2-{4-[2-fluoro-4-(5-methyl-[1,3,4]oxadiazol-2-yl)-phenyl]-piperazin-1-yl}-2-phenyl-acetamide], `CCN(CC)C(=O)C(c1ccccc1)N1CCN(c2ccc(-c3nnc(C(C)C)o3)cc2F)CC1` (stereo not drawn) [Compound 154, N,N-Diethyl-2-{4-[2-fluoro-4-(5-isopropyl-[1,3,4]oxadiazol-2-yl)-phenyl]-piperazin-1-yl}-2-phenyl-acetamide] is 1.9-fold lower in IC50: 0.42 µM for the first, 0.22 µM for the second.
